Data on 17 molecules can be found in patent publication US11655235B2, “Pyrrolidine and piperidine compounds” (YUHAN CORPORATION, priority 2019, dated 2023).

Bounds are passed on as bounds.

The IC50 is the concentration that inhibits the measured activity by half.

What all share (assay type): biochemical
Test [1] concerns the target T1, Recombinant human FAP (Homo sapiens, UniProt Q12884).
T1 construct: purchased R&D systems
T1 sequence (Q12884 1-760): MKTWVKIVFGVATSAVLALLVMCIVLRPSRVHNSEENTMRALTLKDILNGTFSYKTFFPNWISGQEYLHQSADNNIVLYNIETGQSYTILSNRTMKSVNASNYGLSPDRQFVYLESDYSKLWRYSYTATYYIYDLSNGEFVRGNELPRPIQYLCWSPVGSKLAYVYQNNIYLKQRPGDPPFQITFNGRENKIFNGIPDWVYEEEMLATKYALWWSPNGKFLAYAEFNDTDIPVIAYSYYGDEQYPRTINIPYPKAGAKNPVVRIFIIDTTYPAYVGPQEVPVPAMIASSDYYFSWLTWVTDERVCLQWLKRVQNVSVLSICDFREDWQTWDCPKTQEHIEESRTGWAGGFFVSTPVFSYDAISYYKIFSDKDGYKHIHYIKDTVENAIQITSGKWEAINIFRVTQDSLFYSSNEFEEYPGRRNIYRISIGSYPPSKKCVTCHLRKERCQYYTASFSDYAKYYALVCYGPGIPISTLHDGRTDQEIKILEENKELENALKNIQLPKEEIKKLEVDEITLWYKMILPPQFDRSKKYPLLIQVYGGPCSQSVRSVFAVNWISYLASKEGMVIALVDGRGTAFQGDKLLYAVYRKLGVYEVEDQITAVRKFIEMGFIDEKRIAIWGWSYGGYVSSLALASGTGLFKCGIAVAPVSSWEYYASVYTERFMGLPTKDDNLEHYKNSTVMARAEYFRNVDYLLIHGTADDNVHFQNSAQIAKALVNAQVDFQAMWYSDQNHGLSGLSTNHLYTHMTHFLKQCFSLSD
Put plainly: FAP inhibition, fluorogenic substrate Z-Gly-Pro-AMC. The following applies: recombinant human FAP, substrate Z-Gly-Pro-AMC. The essentials:
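Recombinant human FAP, 10 ng per reaction, in 50 mM Tris pH 7.5 with 1 M NaCl and 1 mg/ml BSA at 25° C; substrate Z-Gly-Pro-AMC, ≤0.1% DMSO. AMC fluorescence read at ex 380/em 460 nm; % signal-rate decrease vs no-inhibitor control, 8-point curves fitted to a four-parameter logistic for IC50.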

Test [2] has as its target DPP4 (Homo sapiens, UniProt P27487). The test can be described thus: DPP4 inhibition, fluorogenic substrate H-Gly-Pro-AMC. Set-up: purchased R&D Systems. The following applies: recombinant human DPP4.
For test [3], the target named is T2, recombinant human DPP7 (Homo sapiens, UniProt Q9UHL4).
T2 construct: purchased R&D Systems
Put plainly: DPP7 inhibition, fluorogenic substrate Lys-Pro-AMC. The following applies: recombinant human DPP7. The essentials: (§1)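 Enzyme per reaction: 50 ng DPP9, 20 ng DPP8, 10 ng each DPP7 and PREP. Compounds were serially diluted (8 points, up to 0.5% DMSO) and incubated at 25 °C.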

For test [4], the target named is T3, recombinant human DPP9 (Homo sapiens, UniProt Q86TI2).
T3 construct: purchased R&D Systems
T3 sequence (Q86TI2 whole entry): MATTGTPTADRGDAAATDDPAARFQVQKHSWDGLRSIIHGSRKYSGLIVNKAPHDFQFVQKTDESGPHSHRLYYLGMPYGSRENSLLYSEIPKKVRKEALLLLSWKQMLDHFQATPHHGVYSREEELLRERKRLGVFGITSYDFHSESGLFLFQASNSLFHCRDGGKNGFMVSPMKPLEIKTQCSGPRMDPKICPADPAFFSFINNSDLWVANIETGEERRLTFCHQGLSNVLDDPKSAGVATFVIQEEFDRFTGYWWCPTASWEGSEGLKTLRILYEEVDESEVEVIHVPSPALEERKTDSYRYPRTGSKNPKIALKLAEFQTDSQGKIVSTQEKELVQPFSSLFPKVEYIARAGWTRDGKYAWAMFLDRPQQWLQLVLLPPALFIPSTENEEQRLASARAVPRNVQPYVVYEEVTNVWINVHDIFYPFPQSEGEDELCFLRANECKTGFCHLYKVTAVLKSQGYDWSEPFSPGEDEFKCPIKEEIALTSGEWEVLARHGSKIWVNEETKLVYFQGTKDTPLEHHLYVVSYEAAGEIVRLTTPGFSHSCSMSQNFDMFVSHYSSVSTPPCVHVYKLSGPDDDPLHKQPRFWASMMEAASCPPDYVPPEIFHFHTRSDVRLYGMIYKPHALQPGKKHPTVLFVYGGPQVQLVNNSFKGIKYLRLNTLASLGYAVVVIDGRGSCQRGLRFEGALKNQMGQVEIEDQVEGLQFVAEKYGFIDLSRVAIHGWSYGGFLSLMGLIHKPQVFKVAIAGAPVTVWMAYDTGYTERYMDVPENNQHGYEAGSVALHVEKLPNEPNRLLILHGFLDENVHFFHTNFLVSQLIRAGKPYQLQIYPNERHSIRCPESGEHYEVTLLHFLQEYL
Put plainly: DPP9 inhibition, fluorogenic substrate H-Gly-Pro-AMC. The following applies: recombinant human DPP9. The essentials: as §1

Sequence of DPP4 (P27487 whole entry): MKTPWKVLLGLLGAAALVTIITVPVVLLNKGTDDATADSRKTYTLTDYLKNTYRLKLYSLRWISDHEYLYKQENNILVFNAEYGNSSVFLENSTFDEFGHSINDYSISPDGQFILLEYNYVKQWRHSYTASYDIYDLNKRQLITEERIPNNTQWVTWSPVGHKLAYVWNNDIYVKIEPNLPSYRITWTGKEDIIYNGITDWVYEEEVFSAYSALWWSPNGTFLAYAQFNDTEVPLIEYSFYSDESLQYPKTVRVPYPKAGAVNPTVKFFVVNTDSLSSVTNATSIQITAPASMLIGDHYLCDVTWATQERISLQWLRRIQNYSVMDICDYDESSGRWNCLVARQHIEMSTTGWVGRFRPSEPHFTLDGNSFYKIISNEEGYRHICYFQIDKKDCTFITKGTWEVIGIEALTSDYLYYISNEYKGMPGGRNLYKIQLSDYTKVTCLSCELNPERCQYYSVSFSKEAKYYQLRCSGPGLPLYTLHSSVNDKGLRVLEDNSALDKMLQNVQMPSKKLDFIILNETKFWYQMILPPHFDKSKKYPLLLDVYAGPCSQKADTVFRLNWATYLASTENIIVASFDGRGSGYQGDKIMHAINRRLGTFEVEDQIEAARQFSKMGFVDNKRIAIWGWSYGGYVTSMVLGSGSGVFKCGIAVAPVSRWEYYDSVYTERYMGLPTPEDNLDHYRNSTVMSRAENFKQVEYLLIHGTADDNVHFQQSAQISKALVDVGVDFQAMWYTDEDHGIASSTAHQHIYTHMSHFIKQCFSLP

Regarding `N#C[C@@H]1C[C@H](F)CN1C(=O)CN1CC[C@H](Nc2cccc3ncccc23)C1` [Example 228, (2S,4S)-4-fluoro-1-[2-[(3S)-3-(5-quinolylamino)pyrrolidin-1-yl]acetyl]pyrrolidine-2-carbonitrile], the IC50 in test [1] was 0.00121 µM; in test [2], more than 100 µM; in test [3], 0.387 µM; in test [4] it was 7.48 µM.
With `N#Cc1cnc2cccc(N[C@H]3CCN(CC(=O)N4CCC[C@H]4C#N)C3)c2c1` [Example 232, 5-[[(3S)-1-[2-oxo-2-[(2S)-2-cyanopyrrolidin-1-yl]ethyl]pyrrolidin-3-yl]amino]quinoline-3-carbonitrile], the IC50 in test [1] is 0.0013 µM; in test [2] it was more than 10 µM; in test [3], 7.15 µM; in test [4] it was 29 µM.
For `COc1cnc2cccc(N[C@H]3CCN(CC(=O)N4CCC[C@H]4C#N)C3)c2c1` [Example 233, (2S)-1-[2-[(3S)-3-[(3-methoxy-5-quinolyl)amino]pyrrolidin-1-yl]acetyl]pyrrolidine-2-carbonitrile], in that order: 0.0007 µM, 37.8 µM, 1.07 µM and 21.2 µM.
For `N#C[C@@H]1CCCN1C(=O)CN1CC[C@H](Nc2ccc(F)c3ncccc23)C1` [Example 244, (2S)-1-[2-[(3S)-3-[(8-fluoro-5-quinolyl)amino]pyrrolidin-1-yl]acetyl]pyrrolidine-2-carbonitrile], in that order: 0.0022 µM, more than 10 µM, 9.14 µM and 31.9 µM.
`N#C[C@@H]1CCCN1C(=O)CN1CC[C@H](Nc2ccc(C(F)(F)F)c3ncccc23)C1` [Example 245, (2S)-1-[2-[(3S)-3-[[8-(trifluoromethyl)-5-quinolyl]amino]pyrrolidin-1-yl]acetyl]pyrrolidine-2-carbonitrile]: the IC50 in test [1] is 0.001 µM; in test [2], more than 10 µM; in test [3], 3.75 µM; in test [4], more than 100 µM.
Consider `N#Cc1ccc(N[C@H]2CCN(CC(=O)N3CCC[C@H]3C#N)C2)c2cccnc12` [Example 247, 5-[[(3S)-1-[2-oxo-2-[(2S)-2-cyanopyrrolidin-1-yl]ethyl]pyrrolidin-3-yl]amino]quinoline-8-carbonitrile], for which the IC50 was 0.0013 µM in test [1], more than 10 µM in test [2], more than 50 µM in test [3] and more than 100 µM in test [4].
`N#C[C@@H]1C[C@H](F)CN1C(=O)CN1CC[C@H](Nc2cccc3ncc(F)cc23)C1` [Example 255, (2S,4S)-4-fluoro-1-[2-[(3S)-3-[(3-fluoro-5-quinolyl)amino]pyrrolidin-1-yl]acetyl]pyrrolidine-2-carbonitrile]: the IC50 in test [1] is 0.001 µM; in test [2], 2.41 µM; in test [3] it was 1.85 µM; in test [4], 7.36 µM.
For `COc1ccc(N[C@H]2CCN(CC(=O)N3C[C@@H](F)C[C@H]3C#N)C2)c2cccnc12` [Example 263, (2S,4S)-4-fluoro-1-[2-[(3S)-3-[(8-methoxy-5-quinolyl)amino]pyrrolidin-1-yl]acetyl]pyrrolidine-2-carbonitrile], in that order: 0.0011 µM, 0.792 µM, 0.554 µM and 3.83 µM.
The like results for `N#C[C@@H]1C[C@H](F)CN1C(=O)CN1CC[C@H](Nc2ccc(OC(F)(F)F)c3ncccc23)C1` [Example 266, (2S,4S)-4-fluoro-1-[2-[(3S)-3-[[8-(trifluoromethoxy)-5-quinolyl]amino]pyrrolidin-1-yl]acetyl]pyrrolidine-2-carbonitrile] were, in that order, 0.0008 µM, 1.31 µM, 1.07 µM and 4.38 µM.
The like results for `N#C[C@@H]1C[C@H](F)CN1C(=O)CN1CC[C@H](Nc2ccc(OCc3ccccc3)c3ncccc23)C1` [Example 268, (2S,4S)-4-fluoro-1-[2-[(3S)-3-[(8-benzyloxy-5-quinolyl)amino]pyrrolidin-1-yl]acetyl]pyrrolidine-2-carbonitrile] were, in that order, 0.001 µM, 0.574 µM, 0.511 µM and 0.877 µM.
As for `N#C[C@@H]1C[C@H](F)CN1C(=O)CN1CCC(Nc2ccc(C(F)(F)F)c3ncccc23)CC1` [Example 334, (2S,4S)-4-fluoro-1-[2-[4-[[8-(trifluoromethyl)-5-quinolyl]amino]-1-piperidyl]acetyl]pyrrolidine-2-carbonitrile], the IC50 in test [1] was 0.004 µM; in test [2], 7.76 µM; in test [3], 0.404 µM; in test [4], 1.09 µM.
As to `N#C[C@@H]1C[C@H](F)CN1C(=O)CN1CCC(Nc2ccc(OC(F)(F)F)c3ncccc23)CC1` [Example 347, (2S,4S)-4-fluoro-1-[2-[4-[[8-(trifluoromethoxy)-5-quinolyl]amino]-1-piperidyl]acetyl]pyrrolidine-2-carbonitrile], the IC50 in test [1] was 0.0022 µM; in test [2], 2.66 µM; in test [3] it was 1.01 µM; in test [4], 2.96 µM.
In the case of `COc1cnc2cccc(NC3CCN(CC(=O)N4C[C@@H](F)C[C@H]4C#N)CC3)c2c1` [Example 348, (2S,4S)-4-fluoro-1-[2-[4-[(3-methoxy-5-quinolyl)amino]-1-piperidyl]acetyl]pyrrolidine-2-carbonitrile], the IC50 in test [1] came to 0.0021 µM; in test [2] it was 3.6 µM; in test [3] it was 0.612 µM; in test [4], 6.2 µM.
For `N#C[C@@H]1C[C@H](F)CN1C(=O)CN1CCC(Nc2cccc3ncc(F)cc23)CC1` [Example 349, (2S,4S)-4-fluoro-1-[2-[4-[(3-fluoro-5-quinolyl)amino]-1-piperidyl]acetyl]pyrrolidine-2-carbonitrile], in that order: 0.0016 µM, 1.89 µM, 1.99 µM and 5.06 µM.
As to `N#C[C@@H]1C[C@H](F)CN1C(=O)CN1CCC(Nc2cccc3cnc(Cl)cc23)CC1` [Example 352, (2S,4S)-1-[2-[4-[(3-chloro-5-isoquinolyl)amino]-1-piperidyl]acetyl]-4-fluoro-pyrrolidine-2-carbonitrile], the IC50 in test [1] is 0.0027 µM; in test [2] it was more than 10 µM; in test [3], 2.93 µM; in test [4], 9.77 µM.
`COc1cc2c(NC3CCN(CC(=O)N4C[C@@H](F)C[C@H]4C#N)CC3)cccc2cn1` [Example 355, (2S,4S)-4-fluoro-1-[2-[4-[(3-methoxy-5-isoquinolyl)amino]-1-piperidyl]acetyl]pyrrolidine-2-carbonitrile]: the IC50 in test [1] worked out at 0.0027 µM; in test [2], 5.25 µM; in test [3], 0.846 µM; in test [4], 9.86 µM.
As to `Cc1ccc2nccc(OC3CCN(CC(=O)N4C[C@@H](F)C[C@H]4C#N)CC3)c2c1` [Example 410, (2S,4S)-4-fluoro-1-[2-[4-[(6-methyl-4-quinolyl)oxy]-1-piperidyl]acetyl]pyrrolidine-2-carbonitrile], the IC50 in test [1] is 0.0012 µM; in test [2], more than 10 µM; in test [3], 4.73 µM; in test [4] it was 17.7 µM.
